# Data: ChEMBL document CHEMBL1201862, “PubChem BioAssay data set” (2004)
#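 Five compound concentrations were applied to cells in 96-well plates for 48 hours; endpoints were derived by simple linear interpolation of the resulting dose-response curve. GI50 is the concentration that inhibits growth by half.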 Activity calls are given as the source filed them. Cut-off read from the data, not from the text of the source: active = GI50 up to about 1.1 µM and inactive = higher.
# Assays:
# Assay in all cases: DTP human tumour cell line panel, 48 h
# [1] = tested on: HOP-92
# [2] = tested on: RPMI-8226
# [3] = tested on: A549
# [4] = tested on: M14
# [5] = tested on: CAKI-1
# [6] = tested on: ACHN
# [7] = tested on: OVCAR-3
# [8] = tested on: DMS-273
# [9] = tested on: DLD-1
# [10] = tested on: KM12
# [11] = tested on: IGROV-1
# [12] = tested on: EKVX
# [13] = tested on: M19-MEL
# [14] = tested on: SN12C
# [15] = tested on: HCC 2998
# [16] = tested on: SK-MEL-5
Structure (SMILES),GI50 [1],GI50 [2],GI50 [3],GI50 [4],GI50 [5],GI50 [6],GI50 [7],GI50 [8],GI50 [9],GI50 [10],GI50 [11],GI50 [12],GI50 [13],GI50 [14],GI50 [15],GI50 [16]
O=C1c2ccccc2C(=O)c2c(O)c(NCCCNCCO)cc(O)c21,12.4 µM (inactive),7.59 µM (inactive),10.3 µM (inactive),16.7 µM (inactive),10.2 µM (inactive),3.82 µM (inactive),12.1 µM (inactive),4.97 µM (inactive),6.49 µM (inactive),0.729 µM (active),12.4 µM (inactive),13.7 µM (inactive),13.7 µM (inactive),10.5 µM (inactive),3.06 µM (inactive),
CC(=O)N1CCN(C=S)CC1,> 100 µM (inactive),> 100 µM (inactive),> 100 µM (inactive),> 100 µM (inactive),> 100 µM (inactive),> 100 µM (inactive),> 100 µM (inactive),> 100 µM (inactive),> 100 µM (inactive),> 100 µM (inactive),> 100 µM (inactive),> 100 µM (inactive),> 100 µM (inactive),> 100 µM (inactive),> 100 µM (inactive),> 100 µM (inactive)
CC(=O)NNc1nc(C)c(C(=O)NNC(=O)C(=O)Nc2c(C)cccc2C)s1,40.4 µM (inactive),26.2 µM (inactive),42.4 µM (inactive),54.1 µM (inactive),65.6 µM (inactive),37.6 µM (inactive),26.4 µM (inactive),31.8 µM (inactive),45.5 µM (inactive),35.1 µM (inactive),46.1 µM (inactive),37 µM (inactive),32.7 µM (inactive),> 100 µM (inactive),95.9 µM (inactive),53 µM (inactive)
O=C1CC(O)C=C1Nc1ccc(Cl)cc1 (stereo unspecified),49.1 µM (inactive),,5.81 µM (inactive),10.3 µM (inactive),10.5 µM (inactive),6.98 µM (inactive),71.6 µM (inactive),13.1 µM (inactive),22.3 µM (inactive),13.4 µM (inactive),43.1 µM (inactive),27.7 µM (inactive),25.2 µM (inactive),62.5 µM (inactive),12.1 µM (inactive),30.5 µM (inactive)
CCC(C)OC(=O)C1C2CCC(O2)C1C(=O)O (stereo unspecified),> 66.4 µM (inactive),> 48.3 µM (inactive),> 60.7 µM (inactive),> 100 µM (inactive),> 100 µM (inactive),> 72.4 µM (inactive),> 100 µM (inactive),> 42.8 µM (inactive),> 51.4 µM (inactive),> 100 µM (inactive),> 100 µM (inactive),> 100 µM (inactive),> 60.7 µM (inactive),> 100 µM (inactive),> 100 µM (inactive),> 100 µM (inactive)
O=C(CC1(O)C(=O)Nc2ccccc21)c1ccncc1 (stereo unspecified),> 100 µM (inactive),> 100 µM (inactive),> 100 µM (inactive),> 100 µM (inactive),> 100 µM (inactive),> 100 µM (inactive),,> 100 µM (inactive),> 100 µM (inactive),,> 100 µM (inactive),> 100 µM (inactive),> 100 µM (inactive),> 100 µM (inactive),> 100 µM (inactive),> 100 µM (inactive)
O=C1NC2C3CC(OCc4ccccc4)(OCc4ccccc4)C2OC3O1 (stereo unspecified),> 50 µM (inactive),> 50 µM (inactive),> 50 µM (inactive),> 50 µM (inactive),> 50 µM (inactive),,> 50 µM (inactive),> 50 µM (inactive),> 50 µM (inactive),> 50 µM (inactive),> 50 µM (inactive),,> 50 µM (inactive),> 50 µM (inactive),> 50 µM (inactive),> 50 µM (inactive)
